The target in assay [1] is T1, Mitogen-activated protein kinase 11 (Homo sapiens, UniProt Q15759).
The target in assay [2] is Methionine aminopeptidase 2 (Homo sapiens, UniProt P50579). Kind of assay: Affinity Phenotypic Cellular interaction (Western Blot (acumulation of Nmet14-3-3gamma in HUVEC cells)) EUB0000303b METAP2. Details: mode of action Inhibitor, recommended concentration 1 uM. Type of assay: cell-based. (Immunoblotting shows a protein as a band on a membrane.)
Assay [3] deals with T2, Activin receptor type-1B (Homo sapiens, UniProt P36896). The assay can be described thus: Affinity Phenotypic Cellular interaction (Western blot (inhibition of SMAD2/3 phosphorylation)) EUB0000312b ACVR1B. Details: mode of action Inhibitor, recommended concentration 1 uM.
T2 sequence (P36896 whole entry): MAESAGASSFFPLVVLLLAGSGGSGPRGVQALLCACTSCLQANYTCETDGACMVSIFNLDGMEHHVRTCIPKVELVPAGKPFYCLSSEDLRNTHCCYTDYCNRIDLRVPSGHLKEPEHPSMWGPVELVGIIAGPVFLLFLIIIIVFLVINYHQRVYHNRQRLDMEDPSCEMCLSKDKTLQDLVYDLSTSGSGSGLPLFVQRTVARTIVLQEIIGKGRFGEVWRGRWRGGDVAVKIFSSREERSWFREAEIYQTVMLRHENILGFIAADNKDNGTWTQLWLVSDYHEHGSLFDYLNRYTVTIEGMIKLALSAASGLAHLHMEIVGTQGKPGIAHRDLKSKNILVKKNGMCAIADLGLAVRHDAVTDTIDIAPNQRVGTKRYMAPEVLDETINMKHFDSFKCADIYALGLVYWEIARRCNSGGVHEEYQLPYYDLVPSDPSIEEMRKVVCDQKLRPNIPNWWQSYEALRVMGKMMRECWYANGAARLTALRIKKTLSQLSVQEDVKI
Assay [4] has as its target T2, Activin receptor type-1B. Kind of assay: Affinity Phenotypic Cellular interaction (Western blot (inhibition of SMAD2/3 phosphorylation)) EUB0000710a ACVR1B.
The next assay addresses TGF-beta receptor type-1 (Homo sapiens, UniProt P36897). Kind of assay: Affinity Phenotypic Cellular interaction (Western blot (inhibition of SMAD2/3 phosphorylation)) EUB0000710a TGFBR1.
Assay [5] has as its target 5'-AMP-activated protein kinase catalytic subunit alpha-1 (Homo sapiens, UniProt Q13131). The assay can be described thus: Affinity Phenotypic Cellular interaction (Cellular mechanistic pACC assay using IMR-32 neuroblastoma cells) EUB0000707a PRKAA1. Format: functional. Details: mode of action Negative control for BAY-3827, recommended concentration 100 nM.
For assay [6], the target named is Ribosomal protein S6 kinase alpha-1 (Homo sapiens) (UniProt Q15418). The assay can be described thus: Affinity Phenotypic Cellular interaction (Cellular mechanistic pACC assay using IMR-32 neuroblastoma cells) EUB0000707a RPS6KA1.
Ribosomal protein S6 kinase alpha-1 (Homo sapiens), sequence (Q15418 whole entry, looked up): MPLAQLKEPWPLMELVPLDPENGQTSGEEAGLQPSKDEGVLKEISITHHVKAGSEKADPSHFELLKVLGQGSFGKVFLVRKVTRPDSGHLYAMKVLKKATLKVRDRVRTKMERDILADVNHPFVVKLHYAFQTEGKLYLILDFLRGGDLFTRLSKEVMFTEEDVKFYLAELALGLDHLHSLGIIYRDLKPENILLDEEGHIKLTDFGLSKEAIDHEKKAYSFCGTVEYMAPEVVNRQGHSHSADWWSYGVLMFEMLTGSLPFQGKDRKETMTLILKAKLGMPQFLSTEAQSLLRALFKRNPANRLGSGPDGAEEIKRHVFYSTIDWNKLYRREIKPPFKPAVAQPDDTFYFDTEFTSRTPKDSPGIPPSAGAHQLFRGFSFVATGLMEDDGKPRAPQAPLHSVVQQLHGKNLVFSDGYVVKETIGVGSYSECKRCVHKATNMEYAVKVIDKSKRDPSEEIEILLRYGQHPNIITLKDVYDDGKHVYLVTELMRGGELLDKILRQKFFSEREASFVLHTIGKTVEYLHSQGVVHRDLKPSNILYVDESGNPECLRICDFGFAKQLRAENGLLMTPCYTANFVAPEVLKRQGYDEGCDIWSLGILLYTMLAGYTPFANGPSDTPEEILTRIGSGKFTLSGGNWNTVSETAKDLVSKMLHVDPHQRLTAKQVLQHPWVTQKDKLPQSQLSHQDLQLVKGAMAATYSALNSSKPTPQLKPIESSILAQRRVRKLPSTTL
Assay [7] deals with T3, Calcium/calmodulin-dependent protein kinase kinase 2 (Homo sapiens, UniProt Q96RR4). The assay can be described thus: Affinity Phenotypic Cellular interaction (Western Blot (downstream phosphorylation of AMPK in C4-2 cells)) EUB0000167b CAMKK2. Format: cell-based. More on the design: mode of action Inhibitor, recommended concentration 1 uM.
T3 sequence (Q96RR4 whole entry): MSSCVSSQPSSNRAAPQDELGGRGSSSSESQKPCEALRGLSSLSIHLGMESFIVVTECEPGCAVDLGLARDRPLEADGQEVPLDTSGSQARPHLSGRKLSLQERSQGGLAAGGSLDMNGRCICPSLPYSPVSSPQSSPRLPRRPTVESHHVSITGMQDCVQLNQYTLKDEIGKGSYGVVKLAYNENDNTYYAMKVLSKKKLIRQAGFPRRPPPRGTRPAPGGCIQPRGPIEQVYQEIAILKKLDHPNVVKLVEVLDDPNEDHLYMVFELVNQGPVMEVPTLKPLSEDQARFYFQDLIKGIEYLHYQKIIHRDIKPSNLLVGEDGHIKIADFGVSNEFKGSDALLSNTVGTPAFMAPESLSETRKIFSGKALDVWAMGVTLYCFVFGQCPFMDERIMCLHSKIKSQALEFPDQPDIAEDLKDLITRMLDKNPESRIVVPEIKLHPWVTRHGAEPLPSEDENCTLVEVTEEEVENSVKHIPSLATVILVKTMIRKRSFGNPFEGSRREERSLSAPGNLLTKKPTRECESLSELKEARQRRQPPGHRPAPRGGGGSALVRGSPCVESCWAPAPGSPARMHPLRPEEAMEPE
Assay [8] has as its target T4, Presenilin-1 (Homo sapiens, UniProt P49768). The assay can be described thus: Affinity Phenotypic Cellular interaction (Abeta40 inhibition assay (in SH-SY5Y (SP4CT) cells; APP as target)) EUB0000750a PSEN1. Format: cell-based. More on the design: mode of action Inhibitor, recommended concentration 100 nM.
Assay [9] is described as follows: Affinity Phenotypic Cellular interaction (Proliferation assay (CellTiter-Glo ATP assay in human lung H1299 cells)) EUB0000752a NDUFS2.
In assay [10] the target is Inhibitor of nuclear factor kappa-B kinase subunit epsilon (Homo sapiens, UniProt Q14164).
Inhibitor of nuclear factor kappa-B kinase subunit epsilon, sequence (Q14164 whole entry): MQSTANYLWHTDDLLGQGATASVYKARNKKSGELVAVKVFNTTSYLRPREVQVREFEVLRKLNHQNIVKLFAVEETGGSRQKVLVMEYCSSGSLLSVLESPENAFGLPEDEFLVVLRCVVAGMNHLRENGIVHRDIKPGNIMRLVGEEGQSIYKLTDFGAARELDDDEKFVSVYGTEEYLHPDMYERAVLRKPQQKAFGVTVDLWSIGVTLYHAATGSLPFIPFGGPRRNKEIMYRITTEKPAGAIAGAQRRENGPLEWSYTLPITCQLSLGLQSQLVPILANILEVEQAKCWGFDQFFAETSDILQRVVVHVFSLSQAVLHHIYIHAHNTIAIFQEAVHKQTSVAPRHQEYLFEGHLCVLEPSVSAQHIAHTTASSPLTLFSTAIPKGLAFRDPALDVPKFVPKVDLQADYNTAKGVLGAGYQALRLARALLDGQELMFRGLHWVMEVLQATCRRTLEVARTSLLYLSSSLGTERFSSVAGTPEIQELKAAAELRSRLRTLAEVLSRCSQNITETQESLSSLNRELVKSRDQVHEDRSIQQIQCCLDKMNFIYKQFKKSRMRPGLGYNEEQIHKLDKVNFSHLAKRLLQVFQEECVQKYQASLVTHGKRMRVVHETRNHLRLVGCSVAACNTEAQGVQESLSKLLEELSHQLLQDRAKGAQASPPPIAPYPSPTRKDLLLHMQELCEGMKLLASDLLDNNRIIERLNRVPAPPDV
Assay [11] concerns the target Serine/threonine-protein kinase TBK1 (Homo sapiens, UniProt Q9UHD2).
The target in assay [12] is B-cell lymphoma 6 protein (Homo sapiens, UniProt P41182). Kind of assay: Affinity Phenotypic Cellular interaction (Inhibition of BCL6 co-repressor (BCoR, M2H assay/Bright-Glo luciferase assay in HEK293T cells, Promega)) EUB0000316c BCL6. Details: mode of action Inhibitor, recommended concentration 1 uM. Type of assay: cell-based.
In assay [13] the target is Mitogen-activated protein kinase 14 (Homo sapiens, UniProt Q16539). The assay can be described thus: Affinity Phenotypic Cellular interaction (TNF-a release (stimmulated by LPS in human WB)) EUB0000711a MAPK14. Type of assay: functional. Details: mode of action Negative control for SR318, recommended concentration 1 uM.
Mitogen-activated protein kinase 14, sequence (Q16539 whole entry): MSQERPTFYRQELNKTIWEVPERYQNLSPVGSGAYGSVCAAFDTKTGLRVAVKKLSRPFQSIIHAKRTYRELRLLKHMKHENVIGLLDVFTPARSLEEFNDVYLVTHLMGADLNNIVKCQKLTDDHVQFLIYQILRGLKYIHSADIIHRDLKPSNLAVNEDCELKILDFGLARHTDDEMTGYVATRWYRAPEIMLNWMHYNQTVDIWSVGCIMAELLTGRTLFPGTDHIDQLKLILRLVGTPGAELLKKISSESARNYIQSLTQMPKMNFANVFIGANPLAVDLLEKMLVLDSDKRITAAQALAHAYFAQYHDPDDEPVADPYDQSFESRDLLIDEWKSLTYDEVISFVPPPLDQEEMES
Assay [14] concerns the target T1, Mitogen-activated protein kinase 11. The assay can be described thus: Affinity Phenotypic Cellular interaction (TNF-a release (stimmulated by LPS in human WB)) EUB0000711a MAPK11. Type of assay: functional. More on the design: mode of action Negative control for SR318, recommended concentration 1 uM.
The target of assay [15] is T4, Presenilin-1. Kind of assay: Affinity Phenotypic Cellular interaction (Abeta40 inhibition assay (in SH-SY5Y (SP4CT) cells; APP as target)) EUB0000741a PSEN1. Format: cell-based. More on the design: mode of action Negative control for MRK-560, recommended concentration 100 nM.
Assay [16] has as its target T4, Presenilin-1. Kind of assay: Affinity Phenotypic Cellular interaction (Abeta42 inhibition assay (electrochemiluminescent detection of peptides secreted by SH-SY5Y cells stably overexpressing the APP C-terminal fragment SPA4CT)) EUB0000739a PSEN1. More on the design: mode of action Negative control for GSM1, recommended concentration 1 uM.
The target in assay [17] is T1, Mitogen-activated protein kinase 11. Kind of assay: Affinity Phenotypic Cellular interaction (TNF-a release (stimmulated by LPS in human WB)) EUB0000718a MAPK11. Format: functional. Details: mode of action Inhibitor, recommended concentration 1 uM.
The target in assay [18] is T3, Calcium/calmodulin-dependent protein kinase kinase 2. Kind of assay: Affinity Phenotypic Cellular interaction (Western Blot (downstream phosphorylation of AMPK in C4-2 cells)) EUB0000168b CAMKK2. Format: cell-based. Details: mode of action Negative control for SGC-CAMKK2-1 (UNC-YL-36), recommended concentration 1 uM.

pEC50, pIC50: −log10 of the molar value.

T1 sequence (Q15759 whole entry): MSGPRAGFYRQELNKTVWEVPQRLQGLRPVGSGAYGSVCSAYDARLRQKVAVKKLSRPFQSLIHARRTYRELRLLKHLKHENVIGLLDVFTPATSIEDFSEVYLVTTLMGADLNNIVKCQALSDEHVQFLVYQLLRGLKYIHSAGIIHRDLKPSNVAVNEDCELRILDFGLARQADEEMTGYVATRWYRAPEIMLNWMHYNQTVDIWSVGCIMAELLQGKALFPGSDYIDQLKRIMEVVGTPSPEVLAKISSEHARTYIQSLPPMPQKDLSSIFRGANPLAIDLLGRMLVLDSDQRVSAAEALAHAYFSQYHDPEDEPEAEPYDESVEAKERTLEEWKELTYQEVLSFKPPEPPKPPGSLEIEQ
TGF-beta receptor type-1, sequence (P36897 whole entry): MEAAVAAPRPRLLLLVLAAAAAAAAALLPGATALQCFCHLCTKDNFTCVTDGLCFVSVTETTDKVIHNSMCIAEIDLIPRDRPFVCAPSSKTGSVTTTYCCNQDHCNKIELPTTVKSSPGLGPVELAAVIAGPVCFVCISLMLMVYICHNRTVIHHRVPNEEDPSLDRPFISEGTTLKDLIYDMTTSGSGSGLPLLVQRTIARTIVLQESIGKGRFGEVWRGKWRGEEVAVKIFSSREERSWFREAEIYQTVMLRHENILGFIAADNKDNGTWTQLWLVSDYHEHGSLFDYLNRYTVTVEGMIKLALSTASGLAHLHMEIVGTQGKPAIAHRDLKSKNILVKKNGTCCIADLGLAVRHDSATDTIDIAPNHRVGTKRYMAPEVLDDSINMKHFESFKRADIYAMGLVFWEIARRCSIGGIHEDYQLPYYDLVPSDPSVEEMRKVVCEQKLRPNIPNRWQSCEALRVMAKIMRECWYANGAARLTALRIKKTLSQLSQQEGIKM
5'-AMP-activated protein kinase catalytic subunit alpha-1, sequence (Q13131 whole entry): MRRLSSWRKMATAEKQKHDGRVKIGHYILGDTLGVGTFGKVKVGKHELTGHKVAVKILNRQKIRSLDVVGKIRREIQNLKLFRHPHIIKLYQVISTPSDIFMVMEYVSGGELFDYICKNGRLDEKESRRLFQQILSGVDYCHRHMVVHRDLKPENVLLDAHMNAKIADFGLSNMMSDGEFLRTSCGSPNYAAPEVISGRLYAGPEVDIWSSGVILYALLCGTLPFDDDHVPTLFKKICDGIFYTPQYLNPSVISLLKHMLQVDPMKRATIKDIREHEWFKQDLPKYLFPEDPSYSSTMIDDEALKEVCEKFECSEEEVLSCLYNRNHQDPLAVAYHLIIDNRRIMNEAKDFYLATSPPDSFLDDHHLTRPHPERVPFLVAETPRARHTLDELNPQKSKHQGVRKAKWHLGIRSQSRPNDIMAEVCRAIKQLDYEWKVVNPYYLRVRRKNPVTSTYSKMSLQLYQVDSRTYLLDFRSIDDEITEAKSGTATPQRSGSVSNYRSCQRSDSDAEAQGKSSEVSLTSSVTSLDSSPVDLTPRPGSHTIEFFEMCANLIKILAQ
Methionine aminopeptidase 2, sequence (P50579 whole entry): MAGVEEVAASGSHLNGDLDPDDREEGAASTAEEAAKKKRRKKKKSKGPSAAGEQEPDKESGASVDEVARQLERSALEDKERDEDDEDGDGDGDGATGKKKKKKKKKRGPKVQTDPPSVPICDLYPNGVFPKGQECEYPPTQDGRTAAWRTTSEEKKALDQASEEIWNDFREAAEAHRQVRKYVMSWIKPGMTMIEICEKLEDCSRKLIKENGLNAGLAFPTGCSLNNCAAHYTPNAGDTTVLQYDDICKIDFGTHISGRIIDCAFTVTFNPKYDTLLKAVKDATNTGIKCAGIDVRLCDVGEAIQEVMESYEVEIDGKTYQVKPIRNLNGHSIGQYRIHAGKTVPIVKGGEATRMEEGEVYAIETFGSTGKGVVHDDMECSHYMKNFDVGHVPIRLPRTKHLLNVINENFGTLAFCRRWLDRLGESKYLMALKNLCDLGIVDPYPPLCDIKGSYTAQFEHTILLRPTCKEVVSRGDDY

`O=C1c2ccc(Nc3ccc(F)cc3F)cc2CCc2ccc(OC[C@H](O)CO)cc21` [Skepinone-L]: the pIC50 – broadly, −log10 of the IC50, conventionally taken in molar units – in [1] was 7.60. As to `Cc1nc(N2CC[C@H](O)C2)ncc1-c1cc(C(F)(F)F)cc2[nH]ncc12`, the pEC50 (commonly the negative decadic logarithm of the EC50, by convention in mol/L) in assay [2] is 7.82. The compound `Cc1cnc(-c2cc(Cl)ccc2F)cc1-n1c(=O)n(CC(N)=O)c2cnccc21` [TP-008] had a pEC50 on Activin receptor type-1B [3] of less than 6.00.

As to `Cc1cnc(-c2cc(Cl)ccc2F)cc1-n1c(=O)n(CC(N)=O)c2ccccc21` [Al11], the pEC50 at Activin receptor type-1B [4] and on TGF-beta receptor type-1 was less than 5.00 each time. Consider `CC1=C(C#N)C(c2ccc3c(c2)c(NC(=O)c2ccccc2C)nn3C)C(C#N)=C(C)N1` [BAY-974], for which the pIC50 in assay [5] and in assay [6] was less than 4.52 in each case. For `Cc1cccc(-c2cnc3occ(-c4ccc(C(=O)O)c(C5CCCC5)c4)c3c2)c1`, the pIC50 in [7] is 5.80.

`O=S(=O)(NC1CCC(c2cc(F)ccc2F)(S(=O)(=O)c2ccc(Cl)cc2)CC1)C(F)(F)F` (centres undefined) [MRK-560] gave a pIC50 at Presenilin-1 [8] greater than 9.30. The compound `c1ccc2oc(-c3csc(C4CCN(Cc5nc6ncccc6[nH]5)CC4)n3)cc2c1` had a pIC50 in assay [9] of 7.48. Turning to `C[C@H](c1ccnc(Nc2nc3ccc(-c4cc(N(C)C)ncn4)cc3[nH]2)c1)N1CCN(C(=O)CC(F)(F)F)CC1` [BAY-985], the pIC50 in assay [10] and in assay [11] was 7.13 in each case. For the compound `O=C1CCc2cc(Nc3cc(OC4CCOCC4)c([N+](=O)[O-])cc3Cl)ccc2N1`, the pIC50 in assay [12] is 6.14. On to `O=C(NCCCC1CCCCC1)c1ccc(CNC(=O)c2cnn(-c3ccccc3)c2C(F)(F)F)cc1` [SR-321], for which the pIC50 in assay [13] and in [14] was less than 5.00 in each case. `CC(C)(C)OC(=O)N1CCCC1CNC1CCC(c2cc(F)ccc2F)(S(=O)(=O)c2ccc(Cl)cc2)CC1` (centres undefined) [GSI-NC] showed a pIC50 on Presenilin-1 [15] of 5.80. In the case of `COc1cc(-c2cn([C@H]3CCc4ccccc4N(CC(F)(F)F)C3=O)nn2)ccc1-n1ccc(C)n1`, the pIC50 against Presenilin-1 [16] is less than 5.00.

For `O=C(NCCN1CCOCC1)c1ccc2c(c1)C(=O)c1ccc(Nc3ccc(F)c(NC(=O)c4ccccc4)c3)cc1CC2` [FS-694], the pIC50 in assay [17] is 7.42. Consider `O=C(O)c1ccc(-c2coc3ncc(-c4ccccc4)cc23)cc1Cl`, for which, in assay [18], the pIC50 is less than 5.00.

The values above are taken from ChEMBL document CHEMBL5209897, “Affinity Phenotypic Cellular Literature for EUbOPEN Chemogenomics Library wave 3” (2023).
